Data as given in paper PMC8151848, “Tambjamines and Prodiginines: Biocidal Activity against Trypanosoma cruzi” (Pharmaceutics, 2021).
Like-named read-outs stand apart in the source and are kept apart here.

Assays:
[1] = Cytotoxicity assay (resazurin) in L-929 fibroblasts; assay type: cell-based, mouse; conditions: mouse, L-929, 16 µM, n = 9, read-out: % Cytotoxicity ± SD
Text: (§1) Mouse L-929 fibroblasts (NCTC clone 929, ECACC 88102702) were used for both drug toxicity and infection assays. Cell line was obtained from Dr. Concepció Soler, Dept. Pathology & Experimental therapeutics, Faculty of Medicine and Health Sciences, University of Barcelona, Spain. Human hepatocarcinoma Hep G2 cells (American Type Culture Collection (ATCC HB-8065)) were employed only in the drug toxicity assays and were obtained from Dr. Neus Agell, Cell Biology Research Group, Faculty of Medicine and Health Sciences, University of Barcelona, Spain.
(§2) Cells were seeded by trypsinization in 96-well microplates (L-929: 4 × 10^3 cells/well; Hep G2: 1.5 × 10^4 cells/well) and incubated for 24 h at 37 °C to allow cell attachment. On the following day, the medium was discarded and replaced with a fresh medium containing the different concentrations of the drugs. Hep G2 cells were treated with concentrations of 100, 10, and 1 µM of the different drugs, while L-929 cells were treated with a wider range of concentrations in order to calculate the IC50 value (the drug concentration that inhibits 50% of cell growth). Medium, growth, and drug blanks were used in each test as controls. Plates were incubated again for another 24 h. After treatment, 20 µL of resazurin diluted in 1X phosphate-buffered saline (PBS; Sigma Aldrich) was added at a final concentration of 70 µM. The plates were incubated for another 24 h, after which fluorescence was measured in a microplate reader (FLUOstar OPTIMA, BMG LABTECH GmbH, Ortenberg, Germany) at an excitation wavelength of 530 nm and an emission wavelength of 590 nm. Each concentration was tested in triplicate and the experiments were repeated three times independently. Results indicated the percentage of toxicity (% T value). (3) % Toxicity=100−(AE−AEB)/(AC−ACB)×100 where AE is the absorbance of the experimental group, AEB the absorbance of the drug blank, AC the absorbance of the untreated cells, and ACB the absorbance of the culture medium blank. For the L-929 fibroblasts, the IC50 values (the drug concentration that inhibits 50% of cell growth) were calculated for each compound using the GraphPad Prism software.

[2] = test system: epimastigotes of T. cruzi; experiment: Epimastigote susceptibility assay (combined therapy with benznidazole); assay type: cell-based, Trypanosoma cruzi; conditions: combination of benznidazole with compound at 0.25x IC50
Procedure: To assess the anti-epimastigote effect of the compounds in combination with benznidazole, fixed concentrations of each compound were added to a 96-well microplate previously filled with serial dilutions of benznidazole (0.06–128 µM). These fixed concentrations were calculated based on the IC50 values previously obtained for each drug and corresponded to 4x IC50, 2x IC50, IC50, 0.75x IC50, 0.5x IC50, 0.25x IC50. Each well was inoculated with 100 µL of the epimastigotes (2.5 × 10^5/mL) obtained from the exponential growth phase and the plates were incubated for 72 h at 28 °C. Drug blanks, medium, and growth wells were included in each assay as controls. Afterward, 50 µL of CPRG diluted in 0.9% Triton X-100 solution were added at a final concentration of 200 µM and the plates were returned to the incubator for another 3 h at 37 °C. After incubation, absorbance was read at 595 nm and the data were analyzed. All experiments were repeated at least two times independently and each combination was tested in duplicate.
The results are expressed as the IC50 values obtained with each drug combination. To evaluate the interaction of benznidazole with these compounds, fractional inhibitory concentration (FIC) values were calculated as follows:
FIC of compound A (FIC A) = IC50 of A in combination/IC50 of A alone; while FIC of compound B (FIC B) = IC50 of B in combination/IC50 of B alone.
Finally, the FIC index (FICi) was calculated as the sum of FICs using the following formula: FICi=FIC A+FIC B
FICi values were interpreted according to the criteria established by Simoes-Silva et al.: FICi ≤ 0.5 indicates synergism; FICi > 0.5 and ≤ 4 indicates an additive interaction (no interaction); and FICi > 4 indicates antagonism.

[3] = Cytotoxicity assay (resazurin) in Hep G2 cells; assay type: cell-based, human; conditions: human, n = 9; for cytotoxicity at 24 h, 1 µM: Hep G2, 1 µM, read-out: Cytotoxicity (% cell growth inhibition) at 1 µM ± SD; for cytotoxicity at 24 h, 10 µM: Hep G2, 10 µM, read-out: Cytotoxicity (% cell growth inhibition) at 10 µM ± SD; for cytotoxicity at 24 h, 100 µM: Hep G2, 100 µM, read-out: Cytotoxicity (% cell growth inhibition) at 100 µM ± SD
Text: as §1
as §2, with “Hep G2 cells were treated with concentrations of 100, 10, and 1 µM of the different drugs, while L-929 cells were treated with a wider range of concentrations in order to calculate the IC50 value (the drug concentration that inhibits 50% of cell growth).” left out, “For the L-929 fibroblasts, the IC50 values (the drug concentration that inhibits 50% of cell growth) were calculated for each compound using the GraphPad Prism software.” left out

[4] = Hep G2 hepatocarcinoma cells (ATCC HB-8065)
[5] = L-929 fibroblasts (NCTC clone 929)

| SMILES | cytotoxicity at 24 h, 16 µM [1] [%] | FICi [2] | cytotoxicity at 24 h, 1 µM [3, 4] [%] | cytotoxicity at 24 h, 10 µM [3, 4] [%] | cytotoxicity at 24 h, 100 µM [3, 4] [%] | cytotoxicity at 24 h, 16 µM [1, 5] [%] | cytotoxicity at 24 h, 10 µM [3] [%] | cytotoxicity at 24 h, 100 µM [3] [%] |
| --- | --- | --- | --- | --- | --- | --- | --- | --- |
| CCCCCC1=C/C(=C/c2[nH]c(-c3ccc[nH]3)cc2OC)N=C1C [Natural prodigiosin, prodigiosin] | 95.8 ± 0.09 | 0.81 | – | – | – | – | – | – |
| O=C(Cn1ccnc1[N+](=O)[O-])NCc1ccccc1 [Benznidazole, reference compound] | – | – | 0 | 0.44 ± 0.61 | 0.18 ± 0.08 | 0 | – | – |
| CCCCCC1=C/C(=C/c2[nH]c(-c3ccc[nH]3)cc2OC)N=C1C [Synthetic prodigiosin, prodigiosin] | – | 0.73 | – | – | – | – | 90.5 ± 0.82 | 95.2 ± 0.94 |
| COC1=CC(c2cc3ccccc3[nH]2)=N/C1=C\c1[nH]c(C)cc1C [Obatoclax, reference compound] | – | 1.80 | 10.4 ± 4.8 | 63.3 ± 16.9 | 74.8 ± 4.06 | 63.5 ± 1.63 | – | – |
| CCc1c(-c2ccc[nH]2)[nH]c(/C=N/c2ccc(C(C)(C)C)cc2)c1C [MM4] | – | 0.70 | 0 | 19.1 ± 3.94 | 85.2 ± 9.91 | 64.2 ± 10.5 | – | – |
| CCc1c(-c2ccc[nH]2)[nH]c(/C=N/C2CCCCC2)c1C [MM3] | – | 0.79 | 0.99 ± 0.92 | 24.9 ± 8.92 | 94.36 ± 0.5 | 88.4 ± 2.75 | – | – |
